Test results as given in US20060104902A1, “Method of preselection patients for anti-VEGF, anti-HIF-1 or anti-thioredoxin therapy” (priority 2004, published 2006).

Assays:
HT-29 xenografts = conditions: up to three hours post-treatment; cited from earlier work
current tumor model = conditions: by 24 h post-treatment; cited from earlier work
HT-29 tumor xenografts = experiment: DCE-MRI with Gd-BSA: tumor vascular permeability and vascular volume fraction; type: in vivo, SCID mice
human tumor xenografts = conditions: cited from earlier work
advanced malignancies = conditions: cited from earlier work
human VEGF (hVEGF) = experiment: Human VEGF ELISA in HT-29 xenograft tumors after PX-12; type: in vivo, SCID mice; conditions: PX-12 25 mg/kg ip
Procedure: (§1) FIG. 12. Human VEGF levels (pg/μg protein) in HT-29 xenografts, and VEGF levels (pg/ml) in plasma after treatment with PX-12, 25 mg/kg ip (n=4 mice per time point).
(§2) VEGF detection. Plasma was collected into EDTA tubes and tumors were removed and immediately snap frozen in liquid nitrogen. Tumors were then placed in buffer (10 mM Tris/HCl pH 7.4, and 100 mM NaCl) and homogenized using a PowerGen 125, Fisher Scientific, Pittsburgh, Pa. The suspension was then centrifuged twice at 8,000×g at 4° C. for 15 min. Protein was quantitated in supernatant using the Pierce BCA assay. VEGF levels were quantitated in plasma and tumor lysates using both human (hVEGF) and mouse VEGF […] ELISAs (R&D systems, Minneapolis, Minn.), according the manufactures' instructions.
(§3) This example illustrates the effects of PX-12 on plasma and tumor VEGF levels, as measured by ELISA assays. In these xenografts, hVEGF is derived from the tumor and mVEGF from the host vasculature and stromal tissue, resulting in considerably higher hVEGF than mVEGF in the tumor. Although the endothelium is mouse derived, hVEGF inhibition in xenograft models has been reported to cause obliteration of the host tumor vasculature, implying that hVEGF is active at mouse VEGF receptors VEGFRI (Flt-i) and VEGFR2 (KDR). Therefore, levels of both mouse and human VEGF were measured in the tumor and plasma samples collected.

Trx-1 = biological target: T1, Trx-1 (Homo sapiens, UniProt P10599); conditions: cited from earlier work
T1 sequence (P10599 1-105): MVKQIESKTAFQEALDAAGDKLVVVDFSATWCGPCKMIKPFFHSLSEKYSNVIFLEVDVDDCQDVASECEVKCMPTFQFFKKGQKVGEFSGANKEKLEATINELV

mouse VEGF (mVEGF) = experiment: Mouse VEGF ELISA in tumor and plasma of HT-29 xenograft mice after PX-12; type: in vivo, SCID mice
Procedure: as §1, §2, §3
Some tumors are reported to secrete VEGF into the plasma which can then act on endothelial cells in a paracrine manner or on tumor cells in an autocrine loop if the tumor expresses the VEGF receptors VEGFRI or VEGFR2. Plasma hVEGF expression was too low to be detected in the plasma from the HT-29 xenografts.

hypoxic cells = conditions: cited from earlier work

Cc1ccc2c(=O)c3cccc(CC(=O)O)c3oc2c1C [DMXAA]
tumor perfusion (HT-29 xenografts): considerably decreased

COc1ccc(/C=C\c2cc(OC)c(OC)c(OC)c2)cc1OP(=O)(O)O [CA4P, combretastatin A4 phosphate]
tumor perfusion (HT-29 xenografts): only a small decrease

Cc1[nH]c(/C=C2\C(=O)Nc3ccccc32)c(C)c1CCC(=O)O [SU6668]
fractional plasma volume (current tumor model): decrease

CCC(C)SSc1ncc[nH]1 (stereo not shown) [PX-12, 1-methylpropyl 2-imidazolyl disulfide]
mean reduction in permeability (HT-29 tumor xenografts; 12 hours after PX-12 treatment): 59.2%
mean reduction in permeability (HT-29 tumor xenografts; 24 h post-treatment with PX-12): 51.6%
change in permeability (return to control values) (HT-29 tumor xenografts; 48 hours after PX-12, not significant): +3.4±17.6%
vascular volume fraction of the tumor, control vs treated (HT-29 tumor xenografts; any time point (2-48 h) after PX-12): not significantly modified
mean reduction in tumor blood vessel permeability vs untreated tumors (HT-29 tumor xenografts; within 2 hours after PX-12 injection): 63.4%
in vivo antitumor activity (human tumor xenografts; human tumor xenografts in SCID mice): in vivo antitumor activity
expression of HIF 1α and VEGF and microvessel density (human tumor xenografts; xenograft tumors): significant decreases
circulating levels of VEGF in patients (advanced malignancies; as soon as 4 hours post drug administration): decrease
antitumor activity in phase I study (advanced malignancies; patients with advanced malignancies): revealed antitumor activity
tumor VEGF levels (human VEGF (hVEGF); 2 or 12 hours post-treatment): no significant change
hVEGF levels within the tumors (human VEGF (hVEGF); after 24 hours of treatment): significant decrease
concentrations at which active as a Trx-1 inhibitor (Trx-1): submicromolar
mouse plasma VEGF levels (mouse VEGF (mVEGF); 2 hours post treatment, PX-12 25 mg/kg ip): showed a decrease
mouse VEGF in plasma (mouse VEGF (mVEGF); after 24 h of PX-12 treatment, 25 mg/kg ip, P<0.02): significant decrease
mouse VEGF in tumor (mouse VEGF (mVEGF); starting at 2 h, not statistically significant at any time point, PX-12 25 mg/kg ip): only a small decrease

Avastin: human anti-VEGF antibody Avastin (Bevacizumab, Genentech) [reference compound]
vascular volume fraction VVf (%) (HT-29 tumor xenografts; 1 h post-Tx, HT-29, mean): 4.4%
decrease in vascular volume fraction (HT-29 tumor xenografts; one hour after injection, 20 μl/30 g i.v.): 31.5%
decrease in vascular permeability (HT-29 tumor xenografts; within an hour of injection, 20 μl/30 g i.v.): 75%

C[N+](C)([O-])CCCNc1c2ccccc2nc2cccc([N+](=O)[O-])c12 [aliphatic N-oxide of nitacrine]
selectivity for hypoxic cells (hypoxic cells): approximately 1500 fold
